Test results as given in US10100061B2, “Oxazepine compound and agricultural/horticultural insecticide containing said compound as active ingredient, and method for using the same” (NIHON NOHYAKU CO., LTD., priority 2014, dated 2018).

The compounds below were run on Small Brown Planthopper (Laodelphax Striatellus) (assay: Test of insecticidal efficacy against small brown planthopper (Test Example 2)). Conditions: 500 ppm, rice plants soaked 30 seconds, third-instar larvae, eight days after inoculation; criteria same as in Test Example 1.
Assay type: in vivo
Excerpt: Test of Insecticidal Efficacy Against Small Brown Planthopper (Laodelphax Striatellus)

Structure (SMILES)	Corrected insect mortality, judgment
COCOC1=Nc2ccccc2Oc2cn(-c3cccnc3)nc21 [11-16]	A to D
N#CCN1C(=O)c2nn(-c3cccnc3)cc2Oc2ccc(Cl)cc21 [8-57]	A to D
C=CCN1C(=O)c2nn(-c3cccnc3)cc2Oc2c1c(C)nn2C [14-3]	A to D
CN(C)CCN1C(=O)c2nn(-c3cccnc3)cc2Oc2ccccc21 [1-69]	A to D
Cc1ccc2c(c1)Oc1cn(-c3cccnc3)nc1C(=O)N2C [1-31]	A to D

These compounds were tested on Green Peach Aphid (Myzus Persicae) (assay: Test of preventive value against green peach aphid (Test Example 1)). Conditions: 500 ppm, sprayed over stems and leaves of potted Chinese cabbages, sixth day after spraying.
Assay type: in vivo
Method: Test of Preventive Value Against Green Peach Aphid (Myzus Persicae)
Chinese cabbages were planted in plastic pots, each with a size of 8 cm in diameter and 8 cm in height, after which green peach aphids were propagated and the number of parasitic insects was examined in each pot. An oxazepine compound or salt thereof expressed by General Formula (I) according to the present invention was dispersed in water and the dispersion was diluted to 500 ppm in the form of a reagent, after which the reagent was sprayed over stems and leaves of potted Chinese cabbages and let dry under wind, and the pots were kept in a greenhouse, and on the sixth day after the reagent was sprayed, the number of green peach aphids living parasitically on each Chinese cabbage was examined and the preventive value was calculated based on the formula below, and judgment was made according to the criteria below. Preventive value=100−{(T×Ca)/(Ta×C)}×100 [Mathematical Formula 1] • Ta: Number of parasitic insects inside the treatment area before spraying • T: Number of parasitic insects inside the treatment area after spraying • Ca: Number of parasitic insects inside the non-treatment area before spraying • C: Number of parasitic insects inside the non-treatment area after spraying Judgment Criteria • A - - - Preventive value: 100% • B - - - Preventive value: 99%˜90% • C - - - Preventive value: 89%˜80% • D - - - Preventive value: 79%˜50%

Structure (SMILES)	Preventive value, judgment
C[S+]([O-])CN1C(=O)c2nn(-c3cccnc3)cc2Oc2ccc(F)cc21 (centres unmarked) [8-48]	A to D
CON=CCN1C(=O)c2nn(-c3cccnc3)cc2Oc2ccccc21 [8-16]	A to D
N#CCCCN1C(=O)c2nn(-c3cccnc3)cc2Oc2ccc(F)cc21 [8-51]	A to D
O=C1c2nn(-c3cccnc3)cc2Oc2cc(F)ccc2N1CC1CC1 [8-27]	A to D
CN1CCN(C2=Nc3cc(F)ccc3Oc3cn(-c4cccnc4)nc32)CC1 [11-13]	A to D
c1cncc(-n2cc3c(n2)C(N2CCOCC2)=Nc2ccccc2O3)c1 [11-14]	A to D
CCC(C)N1C(=O)c2nn(-c3cccnc3)cc2Oc2cc(F)ccc21 (centres unmarked) [8-29]	A to D
CC(C)CN1C(=O)c2nn(-c3cccnc3)cc2Oc2cc(F)ccc21 [8-28]	A to D
O=C1c2nn(-c3cccnc3)cc2Oc2ccccc2N1CC1OCCO1 [8-11]	A to D
O=C1Nc2ccc(Br)cc2Oc2cn(-c3cccnc3)nc21 [8-60]	A to D
O=CCN1C(=O)c2nn(-c3cccnc3)cc2Oc2ccccc21 [8-15]	A to D
O=C1c2nn(-c3cccnc3)cc2Oc2ccc(F)cc2N1CCN1CCOCC1 [8-44]	A to D
O=C1Nc2ccc(Cl)cc2Oc2c1nn(-c1cccnc1)c2Cl [9-4]	A to D
O=CN1C(=O)c2nn(-c3cccnc3)cc2Oc2ccc(F)cc21 [8-53]	A to D
CC(=O)OCN1C(=O)c2nn(-c3cccnc3)cc2Oc2ccccc21 [8-9]	A to D
NC(=O)CCN1C(=O)c2nn(-c3cccnc3)cc2Oc2ccccc21 [8-8]	A to D
NC(=O)CN1C(=O)c2nn(-c3cccnc3)cc2Oc2ccc(F)cc21 [8-52]	A to D
C#CCN1C(=O)c2nn(-c3cccnc3)cc2Oc2sccc21 [15-3]	A to D
CN1C(=O)c2nn(-c3cccnc3)cc2Oc2sccc21 [15-2]	A to D
CN(C)C(=O)N1C(=O)c2nn(-c3cccnc3)cc2Oc2ccccc21 [8-14]	A to D
CN1C(=O)c2nn(-c3cccnc3)cc2Oc2ccc(Br)cc21 [8-63]	A to D
N#CCN1C(=O)c2nn(-c3cccnc3)cc2Oc2sccc21 [15-4]	A to D
CC#CCN1C(=O)c2nn(-c3cccnc3)cc2Oc2ccccc21 [8-5]	A to D
O=C1c2nn(-c3cccnc3)cc2Oc2ccccc2N1CC[S+]([O-])CCC(F)(F)F (centres unmarked) [8-18]	A to D
N#CC(F)N1C(=O)c2nn(-c3cccnc3)cc2Oc2cc(F)ccc21 (centres unmarked) [8-33]	A to D
CN1C(=O)c2nn(-c3cccnc3)cc2Oc2cc(I)ccc21 [8-67]	A to D
CN1C(=O)c2nn(-c3cccnc3)cc2Oc2cc(Br)ccc21 [8-61]	A to D

Structure (SMILES)	Preventive value, judgment
O=C1c2nn(-c3cccnc3)cc2Oc2ccccc2N1CCSCCC(F)(F)F [8-17]	A to D
CN1Cc2nn(-c3cccnc3)cc2Oc2ccccc21 [3-2]	A to D
CN1CCN(C2=Nc3ccccc3Oc3cn(-c4cccnc4)nc32)CC1 [11-12]	A to D
O=C1Nc2ccccc2Nc2cn(-c3cccnc3)nc21 [10-1]	A to D
CN1C(=O)c2nn(-c3cccnc3)cc2Oc2ccc(Cl)cc21 [8-55]	A to D
C[S+]([O-])CN1C(=O)c2nn(-c3cccnc3)cc2Oc2ccccc21 (centres unmarked) [8-3]	A to D
CN1C(=O)c2nn(-c3cccnc3)cc2Oc2cccc(Cl)c21 [8-59]	A to D
CC(C)=CCN1C(=O)c2nn(-c3cccnc3)cc2Oc2ccccc21 [8-6]	A to D
O=C1Nc2cccc(Cl)c2Oc2cn(-c3cccnc3)nc21 [1-22]	A to D
O=C1Nc2ccsc2Oc2cn(-c3cccnc3)nc21 [15-1]	A to D
C[Si](C)(C)C#CC1=Nc2ccccc2Oc2cn(-c3cccnc3)nc21 [11-4]	A to D
N#CCN1C(=O)c2nn(-c3cccnc3)c(Cl)c2Oc2cc(F)ccc21 [9-5]	A to D
N#CCCCN1C(=O)c2nn(-c3cccnc3)cc2Oc2cc(F)ccc21 [8-30]	A to D
C#CCN1C(=O)c2nn(-c3cccnc3)cc2Oc2c1c(C)nn2C [14-4]	A to D
CSCN1C(=O)c2nn(-c3cccnc3)cc2Oc2ccc(F)cc21 [8-47]	A to D
O=C1c2nn(-c3cccnc3)cc2Oc2ccc(F)cc2N1CC(F)(F)F [8-39]	A to D
O=C1c2nn(-c3cccnc3)cc2Oc2ccc(F)cc2N1CC1OCCO1 [8-43]	A to D
O=C1c2nn(-c3cccnc3)cc2Oc2ccc(F)cc2N1CC1CC1 [8-36]	A to D
CC(C#N)N1C(=O)c2nn(-c3cccnc3)cc2Oc2ccc(F)cc21 (centres unmarked) [8-50]	A to D
N#CCN1Cc2nn(-c3cccnc3)cc2Oc2cc(F)ccc21 [3-5]	A to D
Cc1nn(C)c2c1N(C)C(=O)c1nn(-c3cccnc3)cc1O2 [14-2]	A to D
COCN1C(=O)c2nn(-c3cccnc3)cc2Oc2c(F)cccc21 [8-22]	A to D
CN1C(=O)c2nn(-c3cncc(Br)c3)cc2Oc2ccccc21 [1-83]	A to D
CN(C)C(=O)CN1C(=O)c2nn(-c3cccnc3)cc2Oc2ccccc21 [8-7]	A to D
C#CCN1C(=O)c2nn(-c3cccnc3)cc2Oc2ccc(Br)cc21 [8-65]	A to D
O=C1c2nn(-c3cccnc3)cc2Oc2ccccc2N1CCS(=O)(=O)CCC(F)(F)F [8-19]	A to D
CC(=O)N1Cc2nn(-c3cccnc3)cc2Oc2ccc(F)cc21 [3-9]	A to D
